What was measured:
Format in all cases: in vivo
Male C57BL6 mice [1] = assay: Aβ40 administration study
Description: Aβ40 administration study: Lyophilised recombinant Aβ40 (Millipore) and scrambled control peptide (ScrAβ40; Millipore) were resuspended in 1% NH4OH and aliquoted at 200 ng/ml in H2O and stored at −80° C. for no longer than 4 weeks. Male C57BL6 mice were obtained from the Animal Resource Centre (Perth, Wash.) at 4 weeks of age and housed with 4 mice per cage on a 12 hr light/dark cycle at a temperature of 22° C. and a constant humidity with a normal rodent diet. At 12 weeks of age, mice were grouped according to body mass and composition, determined by EchoMRI. Mice were then administered 1 μg of recombinant Aβ40 or ScrAβ40 (n=12/group per cohort) by i.p. injection once/day for 5 wks. After 4 weeks of peptide administration, cardiac function was assessed by echocardiography as follows. Mice were anaesthetised with inhalation of 1.5% isoflurane anaesthesia and echocardiography was performed using the Phillips HD15 diagnostic ultrasound system with a 15 MHz linear-array transducer by an experienced veterinarian. The velocity of blood flow through the mitral valve was analysed using Doppler mode imaging. […] Doppler imaging was also utilised to measure the velocity of blood flow through the aortic valve. The measurements were then used to calculate the ejection time, peak aortic flow and heart rate. M-mode imaging of the left ventricle was used to measure the thickness of the inter-ventricular septum (IVS), left ventricular internal diameter (LVID) and left ventricular posterior wall (LVPW) in both diastole (d) and end-systole (s) as well as systolic measures such as ejection fraction and fractional shortening. An estimation of LV mass was calculated from the m-mode imaging by using the formula (1.05[LVIDd+LVPWd+IVSd]^3−[LVIDd]^3) by Troy et al. (1972). Mice were humanely killed by cervical dislocation 1 week later. Blood was obtained immediately following by cardiac puncture and the heart, and other tissues were immediately removed. Hearts were washed in ice cold PBS and weighed prior to being snap frozen in liquid nitrogen. Plasma Aβ40 was measured using a high sensitivity ELISA kit (Wako Diagnostics) and plasma that was diluted 1:10 with assay buffer.

obese mice (HFD) = assay: Verubecestat-High fat diet (HFD) treatment study
Description: Verubecestat-High fat diet (HFD) treatment study: At 12 weeks of age, mice (n=30) were placed on a HFD with 43% of calories from fat (23.5% by weight; SF04-001 High Fat Rodent Diet Based on D12451, Specialty Feeds, Glen Forrest, Wash.). After 13 weeks of the diet period, echocardiography was performed on all mice to obtain pre-drug treatment measures of cardiac function. Mice were allocated to treatment groups so that measures of cardiac function and morphology were matched as best as possible. Verubecestat (MedChemExpress) was resuspended in 100% DMSO before being diluted in a hydroxypropyl cellulose solution to give a final solution containing 6.25 mg/mL Verubecestat in 10% hydroxypropyl cellulose and 5% DMSO. A vehicle solution containing 10% hydroxypropyl cellulose and 5% DMSO was also made. Aliquots of both drug and vehicle were stored at −80° C. until required. The HFD/Verubecestat group was administered 25 mg/kg of Verubecestat per day by oral gavage, while the HFD/control group received an equivalent volume of vehicle. Echocardiography was then performed following 4 weeks of the treatment period to obtain post-drug treatment measures of cardiac function. Following 5 weeks of the drug administration, mice were humanely killed via cervical dislocation and blood was immediately obtained via cardiac puncture and stored in a heparinised tube. The heart, epididymal fat pad, mesenteric fat pad, liver, quadricep, hind limb and brain were then immediately dissected. The heart was blotted prior to being weighed and all tissues were snap frozen in liquid nitrogen and stored at −80° C. Plasma Aβ species were measured using high sensitivity ELISA kits (Wako Diagnostics) and plasma that was diluted 1:10 with assay buffer.

Male C57BL6 mice [2] = assay: Aβ42 administration study: GTT with glucose tracers, cardiac metabolism
Description: At 12 weeks of age, mice were grouped according to body mass and composition, determined by EchoMRI. […] An i.p. glucose tolerance test (GTT) was performed on the final treatment day following an overnight fast. Mice were administered 2 g/kg lean mass of glucose including radioactive glucose tracers, prepared as follows. 100 μl of 1 μCi/μl glucose analogue, [^3H]-2-deoxyglucose (2-DOG), and 500 μl of 200 μCi/mL U-^14C glucose were evaporated to dryness before redissolving the radioactive tracers in 1 mL of 50% glucose. This produced a 50% glucose solution containing 100 μCi/mL [^3H]-2-DOG and 100 μCi/mL U-^14C glucose. The tail tip of each mouse was cut off and the blood glucose concentration of a blood sample was measured using an AccuCheck II glucometer (Roche). The GTT was initiated via intraperitoneal injection of the radiolabelled glucose solution (2 g/kg body weight, 10 uCi/animal) into the overnight-fasted mice. Further blood samples were taken at 15, 30, 45, 60 and 90 minutes after the injection for the measurement of blood glucose. Blood samples (30 μl) were also taken from the tail tip at each time point and diluted in 100 μl of saline. These samples were then centrifuged and the supernatant collected. 50 μl of the supernatant was diluted in 500 μl of distilled water and then suspended in 4 mL of Ultima Gold XR scintillation fluid (Packard Bioscience). Blood radioactivity was determined at each time point by performing liquid scintillation counting on each solution using the Beckman scintillation counter (LS6000 SC). At the conclusion of the GTT, mice were killed via cervical dislocation. Blood was obtained immediately following by cardiac puncture and the heart, and other tissues were immediately removed. Hearts were washed in ice cold PBS and weighed prior to being snap frozen in liquid nitrogen. The heart (30 mg), epididymal fat pad (30 mg and quadriceps skeletal muscle (30 mg) were homogenised in 1.5 ml of distilled water. The homogenate was centrifuged at 3000 rpm for 10 min at 4° C. 400 μl of the supernatant was diluted into 1.6 mL of distilled water and then suspended in 14 mL of Ultima Gold XR scintillation fluid (Packard Bioscience). The radioactivity of each sample (from both [3H]-2-DOG6P and [^3H]-2-DOG) was determined by liquid scintillation counting using the Beckman scintillation counter (LS6000 SC). The ^3H radioactivity was used to measure glucose uptake into each tissue.
To determine the incorporation of U-^14C glucose into triglyceride and the total triglyceride content in the heart, an extraction of triglyceride was carried out using a chloroform/methanol mixture. Samples of heart (30 mg) were hand-homogenised in 2 mL of chloroform/methanol (2:1) and the homogeniser rinsed in a further 2 mL of chloroform/methanol (2:1), and the washings being added to the original extract in 10 mL tubes. The tubes were tightly capped and mixed on a rotator overnight to maximise extraction of the triglycerides. 2 ml of 0.6% saline was then added, to facilitate the separation of the organic and aqueous phases, after which the tubes were mixed thoroughly and then centrifuged at 2000 rpm for 10 minutes. […] The amount of U-^14C glucose clearance into the lipid fraction was measured by suspending 100 μl of the triglyceride solution in 5 mL of Ultima Gold XR scintillation fluid (Packard Bioscience), followed by scintillation counting using the Beckman scintillation counter (LS6000 SC).

Male C57BL6 mice [3] = assay: Aβ42 administration study: cardiac function by echocardiography
Description: After 4 weeks of peptide administration, cardiac function was assessed by echocardiography as follows. Mice were anaesthetised with inhalation of 1.5% isoflurane anaesthesia and echocardiography was performed using the Phillips HD15 diagnostic ultrasound system with a 15 MHz linear-array transducer by an experienced veterinarian. The velocity of blood flow through the mitral valve was analysed using Doppler mode imaging. […] Doppler imaging was also utilised to measure the velocity of blood flow through the aortic valve. The measurements were then used to calculate the ejection time, peak aortic flow and heart rate. M-mode imaging of the left ventricle was used to measure the thickness of the inter-ventricular septum (IVS), left ventricular internal diameter (LVID) and left ventricular posterior wall (LVPW) in both diastole (d) and end-systole (s) as well as systolic measures such as ejection fraction and fractional shortening. An estimation of LV mass was calculated from the m-mode imaging by using the formula (1.05[LVIDd+LVPWd+IVSd]^3−[LVIDd]^3) by Troy et al. (1972). Mice were humanely killed by cervical dislocation 1 week later. Blood was obtained immediately following by cardiac puncture and the heart, and other tissues were immediately removed. Hearts were washed in ice cold PBS and weighed prior to being snap frozen in liquid nitrogen.

Q: How did the “plasma Aβ40” value (Male C57BL6 mice [1]; 1 μg/day i.p., 5 weeks, vs ScrAβ40, FIG. 6A) turn out when “Aβ40: Lyophilised recombinant Aβ40 (Millipore), amyloid beta peptide” was run?
A: Its value is “significantly increased”.

Q: What about the “E:A ratio” value (Male C57BL6 mice [1]; FIG. 6B) of the same compound?
A: The value was “did not have any effect”.

Q: What about the DT (Male C57BL6 mice [1]; FIG. 6C) of the same compound?
A: Its DT is “did not have any effect”.

Q: And the ejection fraction (Male C57BL6 mice [1]; FIG. 6E)?
A: The ejection fraction was “nor any effect”.

Q: And the IVSd (Male C57BL6 mice [1]; FIG. 6F)?
A: The IVSd was “no effect”.

Q: What about the LVIDd (Male C57BL6 mice [1]; FIG. 6G) of the same compound?
A: Its LVIDd is “no effect”.

Q: And the LV mass (Male C57BL6 mice [1]; FIG. 6H)?
A: Its LV mass is “no effect”.

Q: With `CN1C(N)=N[C@](C)(c2cc(NC(=O)c3ccc(F)cn3)ccc2F)CS1(=O)=O` [Verubecestat, verubecestat] as the compound, how does the “plasma Aβ40” value (obese mice (HFD); 25 mg/kg per day oral gavage, obese mice, FIG. 7A) read?
A: Its value is “decreased”.

Q: What about the “plasma Aβ42” value (obese mice (HFD); 25 mg/kg per day oral gavage, obese mice, FIG. 7B) of the same compound?
A: Its value is “decreased”.

Q: And the “DT after treatment, of baseline levels” value (obese mice (HFD); 4 weeks of daily treatment, 25 mg/kg oral, vehicle group 122%, FIG. 7C)?
A: Its value is 107%.

Q: Which “increase in plasma Aβ42 compared with administration of ScrAβ42” value (Male C57BL6 mice [2]; 1 μg/day i.p., five weeks, FIG. 1A) does the source give for “Aβ42: Lyophilised recombinant Aβ42 (Millipore), amyloid beta peptide of 42 amino acids” here?
A: Its value is “approximately 3 fold”.

Q: What about the “cardiac gene expression (inflammation, endoplasmic reticulum stress)” value (Male C57BL6 mice [2]; FIG. 1E) of the same compound?
A: Its value is “gene expression changes indicative of cardiac stress responses”.

Q: What about the “whole body glucose tolerance or plasma insulin throughout the GTT” value (Male C57BL6 mice [2]; after five weeks of peptide administration, vs ScrAβ42) of the same compound?
A: Its value is “no difference”.

Q: What about the “glucose incorporation into TAG (14C-glucose labelling)” value (Male C57BL6 mice [2]; heart, FIG. 1C) of the same compound?
A: The value was “greater”.

Q: And the “total TAG” value (Male C57BL6 mice [2]; heart, FIG. 1D)?
A: Its value is “increased”.

Q: And the “internal dimensions of the left ventricle (LVIDd)” value (Male C57BL6 mice [3]; FIG. 2B)?
A: Its value is “no effect”.

Q: And the deceleration time (Male C57BL6 mice [3]; FIG. 2D)?
A: Its deceleration time is “increased”.

Q: And the fractional shortening (Male C57BL6 mice [3]; FIG. 2F)?
A: The fractional shortening was “reduced”.

Q: And the ejection fraction (Male C57BL6 mice [3]; FIG. 2G)?
A: The ejection fraction was “reduced”.

Q: What about the “E normalised by isovolumetric relaxation time (IVRT)” value (Male C57BL6 mice [3]; between groups, FIG. 2E) of the same compound?
A: Its value is “no significant difference”.

Q: What about the gross heart weight (Male C57BL6 mice [3]; five weeks Aβ42 vs ScrAβ42, FIG. 2A) of the same compound?
A: Its gross heart weight is “no effect”.

Reference: patent US20230218629A1, “THERAPEUTIC COMPOSITIONS AND METHODS FOR PREVENTION AND TREATMENT OF DIASTOLIC DYSFUNCTION” (AMBETEX PTY LTD, priority 2019, published 2023)
